In assay [1] the target is T1, human GIP receptor (Homo sapiens, UniProt P48546).
T1 construct: host or cells: COS-7, transient transfection (calcium phosphate), cDNA in pCMV-Script
T1 sequence (P48546 22-466): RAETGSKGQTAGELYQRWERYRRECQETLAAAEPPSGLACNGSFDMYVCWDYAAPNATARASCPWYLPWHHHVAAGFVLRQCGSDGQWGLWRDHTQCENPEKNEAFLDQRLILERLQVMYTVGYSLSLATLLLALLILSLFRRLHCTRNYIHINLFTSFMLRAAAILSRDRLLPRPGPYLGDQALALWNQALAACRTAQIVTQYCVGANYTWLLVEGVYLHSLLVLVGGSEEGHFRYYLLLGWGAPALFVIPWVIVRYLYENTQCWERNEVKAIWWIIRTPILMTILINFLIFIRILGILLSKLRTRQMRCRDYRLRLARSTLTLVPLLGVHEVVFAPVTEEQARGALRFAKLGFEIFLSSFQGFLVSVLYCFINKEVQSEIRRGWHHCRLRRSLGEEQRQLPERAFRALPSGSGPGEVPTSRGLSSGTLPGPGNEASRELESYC
Description: cAMP accumulation assay, antagonism of a GIP-mediated cAMP response (50-80% of max). In kind it is cell-based. Conditions: for Fold change of IC50 versus GIP(5-30)NH2: fold change of IC50 from GIP(5-30)NH2. Here is the method:
The day after, the cells were washed twice with Hepes buffered saline (HBS) buffer and incubated with HBS and 1 mM 3-isobutyl-1-methylxanthine (IBMX) for 30 min at 37° C. […] The HitHunter™ cAMP XS assay (DiscoveRx) was carried out according to the manufacturer's instructions.
On the technique in general: cAMP levels reflect the balance of adenylyl cyclase and phosphodiesterase activity.

Assay [2] deals with T1, human GIP receptor. Kind of assay: cAMP accumulation assay, agonism (ligand alone). The class given is cell-based. Particulars: Table 1; for Emax: COS-7, intrinsic cAMP activity.
The target of assay [3] is T1, human GIP receptor. Kind of assay: 125I-human GIP competition binding assay, in the presence and absence of 2% HSA.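 As to all read-outs here: nonspecific binding taken as radioligand bound to untransfected cells, IC50 obtained from nonlinear regression fits.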 Conditions: for Fold change HSA (2%)/Casein (0.1%): IC50 (plus HSA)/IC50 (minus HSA); for Binding (+/−HSA) Fold: fold change +HSA/−HSA.
Where [4] appears, read: binding in 0.1% casein (absence of HSA), log value, read-out: logIC50 0.1% casein (converted).
Setting [5] is: heterologous competition binding, transiently transfected COS-7 cells expressing the human GIP receptor, read-out: Binding.
Setting [6] is: transiently transfected COS-7 cells, Table 1 and text, read-out: cAMP antagonism nM (IC50, antagonistic potency).

SMILES strings stand for the structures. Like-named read-outs stand apart in the source and are kept apart here. Peptide text beside a SMILES is read from it. * marks the point of attachment. C16 diacid = O=C(O)CCCCCCCCCCCCCCC(=O)*; Palmitoyl = CCCCCCCCCCCCCCCC(=O)*

With `CCCCCCCCCCCCCCCC(=O)N[C@H](C(=O)N[C@@H](Cc1ccccc1)C(=O)N[C@H](C(=O)N[C@@H](CO)C(=O)N[C@@H](CC(=O)O)C(=O)N[C@@H](Cc1ccc(O)cc1)C(=O)N[C@@H](CO)C(=O)N[C@H](C(=O)N[C@@H](C)C(=O)N[C@@H](CCSC)C(=O)N[C@@H](CC(=O)O)C(=O)N[C@@H](CCCNC(=N)N)C(=O)N[C@H](C(=O)N[C@@H](Cc1c[nH]cn1)C(=O)N[C@@H](CCC(N)=O)C(=O)N[C@@H](CCC(N)=O)C(=O)N[C@@H](CC(=O)O)C(=O)N[C@@H](Cc1ccccc1)C(=O)N[C@H](C(=O)N[C@@H](CC(N)=O)C(=O)N[C@@H](Cc1c[nH]c2ccccc12)C(=O)N[C@@H](CC(C)C)C(=O)N[C@@H](CC(C)C)C(=O)N[C@@H](C)C(=O)N[C@@H](CCC(N)=O)C(=O)N[C@@H](CCCNC(=N)N)C(N)=O)C(C)C)[C@@H](C)CC)[C@@H](C)CC)[C@@H](C)CC)[C@@H](C)O` [AT135, [hGIP(5-30)NH2[K16R; K30R]-C16/5]] (Palmitoyl-TFISDYSIAMDRIHQQDFVNWLLAQR-NH2), the “Ability to antagonize the GIP-mediated cAMP response (in words)” value in assay [1] was “failed to antagonize”. The Emax (as a rule, the greatest response seen or fitted, relative to the assay's reference) in assay [2] (COS-7 cells) came to 0%. The “Fold change HSA (2%)/Casein (0.1%)” value in assay [3] is listed as 0.2. The IC50 is 6310 nM in assay [3] (setting [4]) and 5940 nM in assay [3] (setting [5]).
For the molecule `CC[C@H](C)[C@H](NC(=O)[C@H](CO)NC(=O)[C@H](Cc1ccc(O)cc1)NC(=O)[C@H](CC(=O)O)NC(=O)[C@H](CO)NC(=O)[C@@H](NC(=O)[C@H](Cc1ccccc1)NC(=O)[C@@H](N)[C@@H](C)O)[C@@H](C)CC)C(=O)N[C@@H](C)C(=O)N[C@@H](CCSC)C(=O)N[C@@H](CC(=O)O)C(=O)N[C@@H](CCCCN)C(=O)N[C@H](C(=O)N[C@@H](Cc1c[nH]cn1)C(=O)N[C@@H](CCC(N)=O)C(=O)N[C@@H](CCC(N)=O)C(=O)N[C@@H](CC(=O)O)C(=O)N[C@@H](Cc1ccccc1)C(=O)N[C@H](C(=O)N[C@@H](CCCCNC(=O)CCCCCCCCCCCCCCC(=O)O)C(=O)N[C@@H](Cc1c[nH]c2ccccc12)C(=O)N[C@@H](CC(C)C)C(=O)N[C@@H](CC(C)C)C(=O)N[C@@H](C)C(=O)N[C@@H](CCC(N)=O)C(=O)N[C@@H](CCCCN)C(N)=O)C(C)C)[C@@H](C)CC` [AT184, [hGIP(5-30)NH2[N24K]-C16diacid/24]] (H-TFISDYSIAMDKIHQQDFVK(C16 diacid)WLLAQK-NH2; N-terminus assumed), the “Fold change of IC50 versus GIP(5-30)NH2” value in assay [1] was determined as 3.9. The molecule further showed an Emax in assay [2] (COS-7 cells) of 0%. For the same molecule, in assay [3], the “Fold change HSA (2%)/Casein (0.1%)” value is 1.6 and the “Binding (+/−HSA) Fold” value is listed as 3.9. The affinity in assay [3] (absence of HSA) corresponds to a Ki of 224 nM.
For the molecule `CCCCCCCCCCCCCCCC(=O)NCCCC[C@H](NC(=O)[C@H](CCC(=O)O)NC(=O)[C@H](CCSC)NC(=O)[C@H](C)NC(=O)[C@@H](NC(=O)[C@H](CO)NC(=O)[C@H](Cc1ccc(O)cc1)NC(=O)[C@H](CC(=O)O)NC(=O)[C@H](CO)NC(=O)[C@@H](NC(=O)[C@H](Cc1ccccc1)NC(=O)[C@H](Cc1c[nH]c2ccccc12)NC(=O)CNC(=O)[C@@H](N)CCC(=O)O)[C@@H](C)CC)[C@@H](C)CC)C(=O)N[C@H](C(=O)N[C@@H](C)C(=O)N[C@@H](CCC(N)=O)C(=O)N[C@@H](CCC(N)=O)C(=O)N[C@@H](CC(=O)O)C(=O)N[C@@H](Cc1ccccc1)C(=O)N[C@H](C(=O)N[C@@H](CC(N)=O)C(=O)N[C@@H](Cc1c[nH]c2ccccc12)C(=O)N[C@@H](CC(C)C)C(=O)N[C@@H](CC(C)C)C(=O)N[C@@H](C)C(=O)N[C@@H](CCC(N)=O)C(=O)N[C@@H](CCCCN)C(N)=O)C(C)C)[C@@H](C)CC` [AT107, [hGIP(3-30)NH2[T5W; D15E; H18A]-C16/16]] (H-EGWFISDYSIAMEK(Palmitoyl)IAQQDFVNWLLAQK-NH2; N-terminus assumed), the “cAMP - antagonisme fold (paired)” value in assay [1] (fold vs GIP(3-30)NH2, Table 3b) was 3.1 fold. In addition, the Emax in assay [2] (COS-7 cells) turned out to be 23%. In addition, in assay [2] (COS-7 cells, read-out: cAMP agonism nM (EC50)), the EC50 – broadly, the concentration giving half of the maximal effect – turned out to be 1300 nM. Also, the IC50 was found to be 5220 nM in assay [3] (Table 3b, initial data, read-out: Binding IC50) and 5220 nM in assay [3] (setting [5]). In addition, the “Binding fold (paired)” value in assay [3] (fold decrease in affinity compared to GIP(3-30)NH2, Table 3b) was found to be 186 fold.
For `CC[C@H](C)[C@H](NC(=O)[C@H](CO)NC(=O)[C@H](Cc1ccc(O)cc1)NC(=O)[C@H](CC(=O)O)NC(=O)[C@H](CO)NC(=O)[C@@H](NC(=O)[C@H](Cc1ccccc1)NC(=O)[C@@H](N)[C@@H](C)O)[C@@H](C)CC)C(=O)N[C@@H](C)C(=O)N[C@@H](CCSC)C(=O)N[C@@H](CC(=O)O)C(=O)N[C@@H](CCCCN)C(=O)N[C@H](C(=O)N[C@@H](Cc1c[nH]cn1)C(=O)N[C@@H](CCC(N)=O)C(=O)N[C@@H](CCC(N)=O)C(=O)N[C@@H](CC(=O)O)C(=O)N[C@@H](Cc1ccccc1)C(=O)N[C@H](C(=O)N[C@@H](CC(N)=O)C(=O)N[C@@H](CCCCNC(=O)CCCCCCCCCCCCCCC(=O)O)C(=O)N[C@@H](CC(C)C)C(=O)N[C@@H](CC(C)C)C(=O)N[C@@H](C)C(=O)N[C@@H](CCC(N)=O)C(=O)N[C@@H](CCCCN)C(N)=O)C(C)C)[C@@H](C)CC` [AT185, [hGIP(5-30)NH2[W25K]-C16diacid/25]] (H-TFISDYSIAMDKIHQQDFVNK(C16 diacid)LLAQK-NH2; N-terminus assumed), the IC50 in assay [1] (antagonism of GIP-mediated cAMP response, COS-7 cells, read-out: cAMP accumulation IC50) came to 66.1 nM. Besides, the “Fold change of IC50 versus GIP(5-30)NH2” value in assay [1] is listed as 2.4. For the same molecule, the IC50 in assay [1] (setting [6]) turned out to be 44 nM. The same molecule gave an Emax in assay [2] (COS-7 cells) of 18%. Besides, in assay [2] (given as log EC50 (negative sign), read-out: cAMP agonism EC50 (log) (converted)), the concentration giving a half-maximal response (EC50) is 100 nM. Also, in assay [3], the “Fold change HSA (2%)/Casein (0.1%)” value turned out to be 4.7 and the “Binding (+/−HSA) Fold” value was 5.0. Besides, the Ki (usually a measure of affinity in units of concentration, obtained from inhibition or displacement) in assay [3] (presence of 2% HSA) is 337 nM.
`CC[C@H](C)[C@H](NC(=O)[C@H](CO)NC(=O)[C@H](Cc1ccc(O)cc1)NC(=O)[C@H](CC(=O)O)NC(=O)[C@H](CO)NC(=O)[C@@H](NC(=O)[C@H](CCCCNC(=O)CCCCCCCCCCCCCCC(=O)O)NC(=O)[C@@H](N)[C@@H](C)O)[C@@H](C)CC)C(=O)N[C@@H](C)C(=O)N[C@@H](CCSC)C(=O)N[C@@H](CC(=O)O)C(=O)N[C@@H](CCCCN)C(=O)N[C@H](C(=O)N[C@@H](Cc1c[nH]cn1)C(=O)N[C@@H](CCC(N)=O)C(=O)N[C@@H](CCC(N)=O)C(=O)N[C@@H](CC(=O)O)C(=O)N[C@@H](Cc1ccccc1)C(=O)N[C@H](C(=O)N[C@@H](CC(N)=O)C(=O)N[C@@H](Cc1c[nH]c2ccccc12)C(=O)N[C@@H](CC(C)C)C(=O)N[C@@H](CC(C)C)C(=O)N[C@@H](C)C(=O)N[C@@H](CCC(N)=O)C(=O)N[C@@H](CCCCN)C(N)=O)C(C)C)[C@@H](C)CC` [AT168, [hGIP(5-30)NH2[F6K]-C16diacid/6]]: the “Fold change of IC50 versus GIP(5-30)NH2” value in assay [1] was 5.3. This molecule also showed an Emax in assay [2] (COS-7 cells) of 0%. The “Fold change HSA (2%)/Casein (0.1%)” value in assay [3] is 2.0. The IC50 was 50.1 nM in assay [3] (setting [4]); 100 nM in assay [3] (binding in presence of 2% HSA, read-out: logIC50 2% HSA (converted)); 48 nM in assay [3] (setting [5]). The “Binding (+/−HSA) Fold” value in assay [3] was 2.3.
Turning to `CC[C@H](C)[C@H](NC(=O)[C@H](CO)NC(=O)[C@H](Cc1ccc(O)cc1)NC(=O)[C@H](CC(=O)O)NC(=O)[C@H](CO)NC(=O)[C@@H](NC(=O)[C@H](Cc1ccccc1)NC(=O)[C@@H](N)[C@@H](C)O)[C@@H](C)CC)C(=O)N[C@@H](C)C(=O)N[C@@H](CCSC)C(=O)N[C@@H](CC(=O)O)C(=O)N[C@@H](CCCCN)C(=O)N[C@H](C(=O)N[C@@H](Cc1c[nH]cn1)C(=O)N[C@@H](CCC(N)=O)C(=O)N[C@@H](CCCCNC(=O)CCCCCCCCCCCCCCC(=O)O)C(=O)N[C@@H](CC(=O)O)C(=O)N[C@@H](Cc1ccccc1)C(=O)N[C@H](C(=O)N[C@@H](CC(N)=O)C(=O)N[C@@H](Cc1c[nH]c2ccccc12)C(=O)N[C@@H](CC(C)C)C(=O)N[C@@H](CC(C)C)C(=O)N[C@@H](C)C(=O)N[C@@H](CCC(N)=O)C(=O)N[C@@H](CCCCN)C(N)=O)C(C)C)[C@@H](C)CC` [AT180, [hGIP(5-30)NH2[Q20K]-C16diacid/20]] (H-TFISDYSIAMDKIHQK(C16 diacid)DFVNWLLAQK-NH2; N-terminus assumed), in assay [1], the “Fold change of IC50 versus GIP(5-30)NH2” value is 1.7. In addition, the IC50 in assay [1] (setting [6]) came to 37 nM. Moreover, the maximum response (Emax) in assay [2] (COS-7 cells) was 0%. In assay [3], the “Fold change HSA (2%)/Casein (0.1%)” value is recorded as 3.7 and the “Binding (+/−HSA) Fold” value was determined as 6.4.

The values are drawn from patent US11572399B2, “Long-acting GIP peptide analogues” (University of Copenhagen, priority 2017, dated 2023).
